Assay results taken from BindingDB's records for doi:10.1016/j.ejmech.2018.01.047 (Cnrs, 2018).

Target: T1, Enoyl-[acyl-carrier-protein] reductase [NADH] (Mycobacterium tuberculosis (strain ATCC 25618 / H37Rv), UniProt P9WGR1)
T1 sequence (P9WGR1 whole entry): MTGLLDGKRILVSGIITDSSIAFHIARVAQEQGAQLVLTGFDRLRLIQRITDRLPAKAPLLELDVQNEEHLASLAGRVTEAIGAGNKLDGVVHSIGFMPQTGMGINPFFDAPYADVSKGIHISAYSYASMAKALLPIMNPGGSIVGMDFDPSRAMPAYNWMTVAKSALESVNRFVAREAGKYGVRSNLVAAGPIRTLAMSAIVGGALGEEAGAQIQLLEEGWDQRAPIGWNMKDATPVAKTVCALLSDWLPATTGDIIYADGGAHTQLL
Assay: Inhibition of Mycobacterium tuberculosis InhA

SMILES	IC50 [nM]
CCCCCCc1ccc(Oc2ccccc2C#N)c(O)c1 [PT119]	236
CCCCCCc1ccc(Oc2ccccc2Cl)c(O)c1 [PT91]	49
